What is called MIC is the least concentration at which growth counts as inhibited.

Data set [1] has as its system erythrocytes of tilapia. It counts as cell-based. As for the experimental part:
(§1) The hemolytic activities of Nile tilapia piscidins were determined according to a previous method, [34]. In brief, erythrocytes of tilapia (2×10^7 cells) were washed three times with 0.9% NaCl and incubated with various concentrations of the peptides for 3 h at 37°C. After centrifugation, the absorbance at 545 nm of the suspension was determined. Erythrocytes in PBS (Ablank) and 0.1% Triton X-100 (Atriton) respectively served as the negative and positive controls. The percentage of hemolysis was calculated according to the equation described in a previous publication. The hemolysis assay was performed in triplicate.

For data set [2], the system named is human erythrocytes. It counts as cell-based. As for the experimental part:
as §1
Supplementary file pone.0050263.s004.tif: Figure S4 In vitro assays used HeLa (ATCC: CCL-2™), RAW264.7 (ATCC: TIB-71™), and MRC-5 (ATCC: CCL-171™) cells. Tumor cells (HeLa and RAW264.7 cells) and normal cells (MRC-5) were treated with different doses of piscidin peptides (TP1∼5) for 24 h, followed by an MTS assay. Each concentration was repeated in eight wells for three independent experiments. Results are expressed as a percentage of the survival rate of viable cells. Piscidin treatment affected cell viability in a dose-dependent manner. There were significant differences between treatment groups for TP4 and TP3. Data are from three separate experiments. Hemolytic activities of TP1∼5 against human erythrocytes. […]

Data set [3] concerns P. aeruginosa ATCC 19660. It counts as cell-based, Pseudomonas aeruginosa. Particulars: ATCC 19660, pH 7.4. As to the method: (§2) Escherichia coli for transformation was cultured in LB medium at 37°C.
(§3) Peptides were synthesized by GL Biochem (Shanghai, China) using a solid-phase procedure of Fmoc chemistry. Crude peptides were extracted, lyophilized, and purified by reverse-phase high-performance liquid chromatography (HPLC). The molecular masses and purities of the purified peptides were respectively verified by mass spectroscopy and HPLC. Synthetic peptides at >95% purity were reconstituted in phosphate-buffered saline (PBS; pH 7.4) for the experiments. The TP1 sequence was FDWDSVLKGVEGFVRGYF, the TP2 sequence was […], the TP3 sequence was […], the TP4 sequence was […], the TP5 sequence was […], the epinecidin-1 (Epi-1) sequence was […], and the cod pis 1 sequence was […]. C terminals of all synthetic peptides were amidated. The minimal inhibitory concentration (MIC) was measured for each strain of microorganism listed above. The MICs of the peptides were determined by a broth microdilution analysis based on an online method (http://cmdr.ubc.ca/bobh/methods/MODIFIEDMIC.html; Hancock Laboratory Methods. Department of Microbiology and Immunology, University of British Columbia, British Columbia, Canada) without modification.

The test system of data set [4] is A. hydrophila BCRC 13018. Format: cell-based, Aeromonas hydrophila. Particulars: BCRC 13018, pH 7.4. As to the method: as §2, §3
Data set [5] concerns S. agalactiae BCRC 10787. Format: cell-based, Streptococcus agalactiae. Particulars: BCRC 10787, pH 7.4. As to the method: as §2, §3
Data set [6] deals with S. agalactiae 819. It counts as cell-based, Streptococcus agalactiae. Particulars: 819, pH 7.4. As to the method: as §2, §3
Data set [7] concerns E. faecalis BCRC 10066. Format: cell-based, Enterococcus faecalis. Particulars: BCRC 10066, pH 7.4. As for the experimental part:
as §2, §3

For data set [8], the system named is V. alginolyticus. It counts as cell-based, Vibrio alginolyticus. Particulars: pH 7.4. As to the method:
as §2, §3

In data set [9] the test system is V. vulnificus 204. It counts as cell-based, Vibrio vulnificus. Particulars: 204, pH 7.4. As for the experimental part: as §2, §3
The test system of data set [10] is methicillin-resistant Staphylococcus aureus (MRSA). The following applies: in vitro assay; synthetic peptide; cited from earlier work. From the text:
Piscidins are cationic AMPs expressed by fish mast cells. […] The piscidin family includes pleurocidin, moronecidin, chrysophsin, dicentracin, epinecidin-1, and myxinidin. Piscidins have a widespread presence in higher teleosts, so far including 11 species in eight families of the Moronidae, Sciaenidae, Sparidae, Latidae, Siganidae, Belontida ...

Where no end group is shown, it is not given here.

Turning to FIHHIIGGLFSAGKAIHRLIRRRRR-NH2 [TP4], the “concentration at which the hemolytic effect began” value in data set [1] and in data set [2] was 400 to 800 ng/mL each time. In addition, the MIC in data set [3] came out at 0.52 µg/mL; in data set [4], 1.05 µg/mL; in data set [5] it was 0.13 µg/mL; in data set [6], 2.10 µg/mL; in data set [7], 8.39 µg/mL; in data set [8], 0.03 µg/mL. The substance further returned a minimum inhibitory concentration (MIC) in [9] of 0.03 µg/mL.
As to “FIHHIIGWISHGVRAIHRAIHG-NH2 [cod Pis 1, reference compound]”, the MIC was over 19.78 µg/mL in data set [3]; 19.78 µg/mL in [4]; 0.31 µg/mL in data set [5]; 9.89 µg/mL in data set [6]; 9.89 µg/mL in [7]; 1.24 µg/mL in data set [8]. Moreover, in data set [9], the MIC was 0.62 µg/mL.
Consider FIHHIIGGLFSVGKHIHSLIHGH-NH2 [TP3], for which the “hemolytic activity toward human erythrocytes” value in data set [2] is reported as “low hemolytic activity”. Besides, the MIC in [3] is over 19.55 µg/mL; in data set [4] it was over 19.55 µg/mL; in data set [5], 0.61 µg/mL; in data set [6], 9.78 µg/mL; in [7], 19.55 µg/mL; in [8], 2.44 µg/mL. The minimum inhibitory concentration (MIC) in [9] came out at 2.44 µg/mL.
Regarding QLQGKQVSGEVVQKVLQELIQSVAKP-NH2 [TP5], the MIC in [3], in data set [4], in [5], in data set [6], in [7] and in [8] was over 17.64 µg/mL each time. The MIC in data set [9] was over 17.64 µg/mL.
For FDWDSVLKGVEGFVRGYF-NH2 [TP1], the MIC in data set [3], in data set [4], in data set [5], in data set [6], in data set [7] and in data set [8] was over 23.57 µg/mL in each case. The same substance displayed an MIC in data set [9] of over 23.57 µg/mL.
For “FFHHIFRGIVHVGKTIHRLVTG [piscidin 1, synthetic piscidin 1, literature values]”, the MIC in data set [10] was 3.1 µM.
In the case of GECIWDAIFHGAKHFLHRLVNP-NH2 [TP2], the MIC in data set [3], in data set [4], in data set [5], in data set [6], in [7] and in data set [8] was over 19.52 µg/mL throughout. Besides, the MIC in data set [9] was over 19.52 µg/mL.
“GFIFHIIKGLFHAGKMIHGLV-NH2 [Epi-1, epinecidin-1, reference compound]”: the MIC was 10.70 µg/mL in [3]; over 21.41 µg/mL in [4]; 0.33 µg/mL in data set [5]; over 21.41 µg/mL in data set [6]; over 21.41 µg/mL in data set [7]; 2.68 µg/mL in [8]. Besides, the MIC in data set [9] was 0.67 µg/mL.

The record behind these values is publication PMC3511469, “Five Different Piscidins from Nile Tilapia, Oreochromis niloticus: Analysis of Their Expressions and Biological Functions” (PLoS ONE, 2012).
